According to patent US12358863B2, “Nitrogen-containing derivative of substituted phenol hydroxy acid ester, and preparation and use thereof” (priority 2019, dated 2025):
Read-outs that look alike come from different tables or passages of the source.

Key:
[1] = system: Kunming mice; type: in vivo, mouse
Protocol: For each drug, 10 male Kunming mice weighing 20-35 g were included, and the dose of each drug was 2×ED50 in mice. After the compound of the present invention and fospropofol were respectively dissolved in saline, the resultant solutions were injected via the mouse tail vein. For propofol, a glucose dilution (5 mg/mL) of a commercially available emulsion of diprivan was selected and injected via the mouse tail vein; while, for another substituted phenol molecule (CAS:1637741-58-2), its 30% fat emulsion was prepared as a medicated emulsion. The concentration of the injectable solution of the compound according to the present invention was 10-15 mg/mL, and the concentration of the injectable solution of fospropofol was 55 mg/mL, while the concentration of the injectable solution of another substituted phenol molecule (CAS:1637741-58-2) was 1 mg/mL. After injection of tested drug, the occurrence time T1 of righting reflex after its disappearance, the duration T2 for the disappearance of righting reflex (i.e. anesthesia time) and the time T3 required for the animal to recover completely after waking up were recorded. Complete recovery refers to the recovery of autonomous activities of animals to the level before administration. In the experiment, animals were not given respiratory support such as oxygen inhalation or intubation.

[2] = Decomposition of prodrugs in mouse plasma in vitro (HPLC of released propofol or other substituted phenol); type: in vitro ADME; settings: 37° C.
Protocol: The prodrug to be tested was prepared into a saline solution of 10 mg/mL. 10 μL of drug-containing solution was added to 990 μL of mouse plasma, vortexed for 30 s, and then incubated at 37° C. At 30 s, 1 min, 5 min, 10 min, 30 min, 60 min and 120 min, 50 μL of drug-containing plasma was collected, to which was immediately added 150 μL of acetonitrile to terminate the enzymatic reaction, and then centrifuged at 20000 rpm and 4° C. for 10 min. 50 μL of supernatant was taken out and injected into HPLC, to determine the concentration of propofol by internal standard method. The decomposition rate of the prodrug was calculated from the concentrations of propofol or other substituted phenols. Chromatographic conditions: Agilent Zorbax XdB C18 column (150 mm)×4.6 mm, 5 μm); column temperature 30° C.; the mobile phase, water:acetonitrile (40:60, v/v); fluorescence wavelength: excitation wavelength (Ex) at 276 nm, emission wavelength (EM) at 310 nm; flow rate: 1.2 mL/min; retention time: internal standard (thymol) 3.9 min, propofol 7.4 min. Linear range of propofol or other substituted phenols: 50-35000 ng/mL. Instruments: Waters 2695 high performance liquid chromatograph, Waters 2475 fluorescence detector.

[3] = system: Kunming mice; assay: Determination of therapeutic index (ED50 and LD50, up-and-down method); type: in vivo, mouse; settings: half male and half female
Protocol: Determination of therapeutic index (TI) of prodrug molecules: by referring the method in literature (Dixon, W. Staircase bioassay: the up-and-down method. Neurosci. Biobehav. Rev. 1991, 15, 47-50), the half-effective dose (ED50) and half-lethal dose (LD50) of the molecule to be tested were determined in Kunming mice (weighing 25-30 g, half male and half female). The therapeutic index for each molecule was calculated according to the equation: TI=LD50/ED50.

[4] = Table 4 (other substituted phenols and prodrugs), dose 2×ED50, tail vein injection, male Kunming mice
[5] = Table 3, dose 2×ED50, tail vein injection, male Kunming mice

CC(C)c1cccc([C@H](C)C2CC2)c1O [(R)-2-cyclopropylethyl-6-isopropylphenol, reference compound]
T1: the onset time after injection [1, 4]: Immediate
T2: the duration of disappearance of righting reflex [1, 4]: 5 to 8 min
T3: the time required for righting reflex to recover to autonomous activity [1, 4]: 1 to 2 min

CC(C)c1cccc(C(C)C)c1OC(=O)COC(=O)CN [Compound 1]
Decomposition rates of prodrugs ([2]; 30 s): 97%
Decomposition rates of prodrugs ([2]; 1 min): 100%
Decomposition rates of prodrugs ([2]; 5 min): 100%
Decomposition rates of prodrugs ([2]; 10 min): 100%
Decomposition rates of prodrugs ([2]; 30 min): 100%
Decomposition rates of prodrugs ([2]; 60 min): 100%
Decomposition rates of prodrugs ([2]; 120 min): 100%
T1: the onset time after injection ([1]; mouse, in vivo): Immediate
T2: the duration of disappearance of righting reflex ([1]; mouse, in vivo): 6 to 12 min
T3: the time required for righting reflex to recover to autonomous activity ([1]; mouse, in vivo): 1 to 2 min

CNCC(=O)OCC(=O)Oc1c(C(C)C)cccc1C(C)C [Compound 2]
Decomposition rates of prodrugs ([2]; 30 s): 87%
Decomposition rates of prodrugs ([2]; 1 min): 98%
Decomposition rates of prodrugs ([2]; 5 min): 100%
Decomposition rates of prodrugs ([2]; 10 min): 100%
Decomposition rates of prodrugs ([2]; 30 min): 100%
Decomposition rates of prodrugs ([2]; 60 min): 100%
Decomposition rates of prodrugs ([2]; 120 min): 100%
T1: the onset time after injection ([1]; mouse, in vivo): Immediate
T2: the duration of disappearance of righting reflex ([1]; mouse, in vivo): 7 to 15 min
T3: the time required for righting reflex to recover to autonomous activity ([1]; mouse, in vivo): 1 to 2 min

CC(C)c1cccc(C(C)C)c1OC(=O)COC(=O)CN(C)C [Compound 3]
Decomposition rates of prodrugs ([2]; 30 s): 51%
Decomposition rates of prodrugs ([2]; 1 min): 67%
Decomposition rates of prodrugs ([2]; 5 min): 80%
Decomposition rates of prodrugs ([2]; 10 min): 90%
Decomposition rates of prodrugs ([2]; 30 min): 97%
Decomposition rates of prodrugs ([2]; 60 min): 100%
Decomposition rates of prodrugs ([2]; 120 min): 100%
T1: the onset time after injection ([1]; mouse, in vivo): Immediate
T2: the duration of disappearance of righting reflex ([1]; mouse, in vivo): 5 to 10 min
T3: the time required for righting reflex to recover to autonomous activity ([1]; mouse, in vivo): 1 to 2 min

CC(C)c1cccc(C(C)C)c1OC(=O)COC(=O)[C@H](C)N [Compound 4]
Decomposition rates of prodrugs ([2]; 30 s): 94%
Decomposition rates of prodrugs ([2]; 1 min): 100%
Decomposition rates of prodrugs ([2]; 5 min): 100%
Decomposition rates of prodrugs ([2]; 10 min): 100%
Decomposition rates of prodrugs ([2]; 30 min): 100%
Decomposition rates of prodrugs ([2]; 60 min): 100%
Decomposition rates of prodrugs ([2]; 120 min): 100%
T1: the onset time after injection [1, 5]: Immediate
T2: the duration of disappearance of righting reflex [1, 5]: 5 to 13 min
T3: the time required for righting reflex to recover to autonomous activity [1, 5]: 1 to 2 min

CC(C)c1cccc(C(C)C)c1OC(=O)COC(=O)CN1CCN(C)CC1 [Compound 7]
Decomposition rates of prodrugs ([2]; 30 s): 91%
Decomposition rates of prodrugs ([2]; 1 min): 100%
Decomposition rates of prodrugs ([2]; 5 min): 100%
Decomposition rates of prodrugs ([2]; 10 min): 100%
Decomposition rates of prodrugs ([2]; 30 min): 100%
Decomposition rates of prodrugs ([2]; 60 min): 100%
Decomposition rates of prodrugs ([2]; 120 min): 100%
T3: the time required for righting reflex to recover to autonomous activity [1, 5]: 1 to 2 min
T1: the onset time after injection ([1]; mouse, in vivo): Immediate
T2: the duration of disappearance of righting reflex ([1]; mouse, in vivo): 6 to 13 min
TI (therapeutic index) [3]: 3.9

CC(C)c1cccc([C@H](C)C2CC2)c1OC(=O)COC(=O)CN1CCOCC1.Cl [Compound 17]
Decomposition rates of prodrugs ([2]; 30 s): 55%
Decomposition rates of prodrugs ([2]; 1 min): 63%
Decomposition rates of prodrugs ([2]; 5 min): 78%
Decomposition rates of prodrugs ([2]; 10 min): 85%
Decomposition rates of prodrugs ([2]; 30 min): 100%
Decomposition rates of prodrugs ([2]; 60 min): 100%
Decomposition rates of prodrugs ([2]; 120 min): 100%
T1: the onset time after injection [1, 4]: Immediate
T2: the duration of disappearance of righting reflex [1, 4]: 5.5 to 8 min
T3: the time required for righting reflex to recover to autonomous activity [1, 4]: 1 to 2 min

CC(C)c1cccc([C@H](C)C2CC2)c1OC(=O)COC(=O)CN1CCOCC1 [Compound 19]
T1: the onset time after injection [1, 4]: Immediate
T2: the duration of disappearance of righting reflex [1, 4]: 5.5 to 9 min
T3: the time required for righting reflex to recover to autonomous activity [1, 4]: 1 to 2 min

CC(C)c1cccc(C(C)C)c1OC(=O)COC(=O)CN1CCOCC1 [Compound 22]
Decomposition rates of prodrugs ([2]; 30 s): 58%
Decomposition rates of prodrugs ([2]; 1 min): 66%
Decomposition rates of prodrugs ([2]; 5 min): 80%
Decomposition rates of prodrugs ([2]; 10 min): 89%
Decomposition rates of prodrugs ([2]; 30 min): 100%
Decomposition rates of prodrugs ([2]; 60 min): 100%
Decomposition rates of prodrugs ([2]; 120 min): 100%
T3: the time required for righting reflex to recover to autonomous activity [1, 5]: 1 to 2 min
T1: the onset time after injection ([1]; mouse, in vivo): Immediate
T2: the duration of disappearance of righting reflex ([1]; mouse, in vivo): 4.5 to 10.5 min
TI (therapeutic index) [3]: 4.7

CC(C)c1cccc(C(C)C)c1OC(=O)COC(=O)CN1CCOCC1 [Compound 23]
Decomposition rates of prodrugs ([2]; 30 s): 89%
Decomposition rates of prodrugs ([2]; 1 min): 100%
Decomposition rates of prodrugs ([2]; 5 min): 100%
Decomposition rates of prodrugs ([2]; 10 min): 100%
Decomposition rates of prodrugs ([2]; 30 min): 100%
Decomposition rates of prodrugs ([2]; 60 min): 100%
Decomposition rates of prodrugs ([2]; 120 min): 100%
T1: the onset time after injection [1, 5]: Immediate
T2: the duration of disappearance of righting reflex [1, 5]: 5 to 13 min
T3: the time required for righting reflex to recover to autonomous activity [1, 5]: 1 to 2 min
TI (therapeutic index) [3]: 4.4

CC(C)c1cccc(C(C)C)c1OC(=O)COC(=O)CN1CCOCC1 [Compound 27]
Decomposition rates of prodrugs ([2]; 30 s): 60%
Decomposition rates of prodrugs ([2]; 1 min): 65%
Decomposition rates of prodrugs ([2]; 5 min): 79%
Decomposition rates of prodrugs ([2]; 10 min): 86%
Decomposition rates of prodrugs ([2]; 30 min): 100%
Decomposition rates of prodrugs ([2]; 60 min): 100%
Decomposition rates of prodrugs ([2]; 120 min): 100%
T1: the onset time after injection [1, 5]: Immediate
T2: the duration of disappearance of righting reflex [1, 5]: 4 to 12 min
T3: the time required for righting reflex to recover to autonomous activity [1, 5]: 1 to 2 min
TI (therapeutic index) [3]: 4.5

CC(C)c1cccc(C(C)C)c1OC(=O)COC(=O)CN1CCCCC1 [Compound 29]
Decomposition rates of prodrugs ([2]; 30 s): 88%
Decomposition rates of prodrugs ([2]; 1 min): 100%
Decomposition rates of prodrugs ([2]; 5 min): 100%
Decomposition rates of prodrugs ([2]; 10 min): 100%
Decomposition rates of prodrugs ([2]; 30 min): 100%
Decomposition rates of prodrugs ([2]; 60 min): 100%
Decomposition rates of prodrugs ([2]; 120 min): 100%
T3: the time required for righting reflex to recover to autonomous activity [1, 5]: 1 to 2 min
T1: the onset time after injection ([1]; mouse, in vivo): Immediate
T2: the duration of disappearance of righting reflex ([1]; mouse, in vivo): 5 to 14 min
TI (therapeutic index) [3]: 4.1

CC(C)c1cccc(C(C)C)c1OC(=O)COC(=O)CN1CCC1.Cl [Compound 37]
Decomposition rates of prodrugs ([2]; 30 s): 75%
Decomposition rates of prodrugs ([2]; 1 min): 92%
Decomposition rates of prodrugs ([2]; 5 min): 100%
Decomposition rates of prodrugs ([2]; 10 min): 100%
Decomposition rates of prodrugs ([2]; 30 min): 100%
Decomposition rates of prodrugs ([2]; 60 min): 100%
Decomposition rates of prodrugs ([2]; 120 min): 100%
T1: the onset time after injection [1, 5]: Immediate
T2: the duration of disappearance of righting reflex [1, 5]: 4 to 10 min
T3: the time required for righting reflex to recover to autonomous activity [1, 5]: 1 to 2 min
TI (therapeutic index) [3]: 3.9

CC(C)c1cccc(C(C)C)c1OC(=O)COC(=O)[C@@H](C)N(C)C.Cl [Compound 41]
Decomposition rates of prodrugs ([2]; 30 s): 89%
Decomposition rates of prodrugs ([2]; 1 min): 100%
Decomposition rates of prodrugs ([2]; 5 min): 100%
Decomposition rates of prodrugs ([2]; 10 min): 100%
Decomposition rates of prodrugs ([2]; 30 min): 100%
Decomposition rates of prodrugs ([2]; 60 min): 100%
Decomposition rates of prodrugs ([2]; 120 min): 100%
T1: the onset time after injection [1, 5]: Immediate
T2: the duration of disappearance of righting reflex [1, 5]: 5 to 13 min
T3: the time required for righting reflex to recover to autonomous activity [1, 5]: 1 to 2 min
TI (therapeutic index) [3]: 3.8

CC(C)c1cccc([C@H](C)C2CC2)c1OC(=O)COC(=O)CN1CCCCC1.Cl [Compound 53]
T1: the onset time after injection [1, 4]: Immediate
T2: the duration of disappearance of righting reflex [1, 4]: 5 to 8.5 min
T3: the time required for righting reflex to recover to autonomous activity [1, 4]: 1 to 2 min

CC(C)c1cccc([C@@H](C)C2CC2)c1OC(=O)COC(=O)CN1CCCC1.Cl [Compound 55]
T1: the onset time after injection [1, 4]: Immediate
T2: the duration of disappearance of righting reflex [1, 4]: 5 to 9 min
T3: the time required for righting reflex to recover to autonomous activity [1, 4]: 1 to 2 min

CC(C)c1cccc(C(C)C)c1O [Propofol, reference compound]
T1: the onset time after injection ([1]; mouse, in vivo): Immediate
T2: the duration of disappearance of righting reflex ([1]; mouse, in vivo): 5 to 11.5 min
T3: the time required for righting reflex to recover to autonomous activity ([1]; mouse, in vivo): 1 to 2 min
TI (therapeutic index) [3]: 4.4
